Source: patent EP0562731A1, “Substituted pyridinesulfonamide compounds or their salts, process for preparing the same, and herbicides containing the same” (ISHIHARA SANGYO KAISHA, Ltd., priority 1992, dated 1993)

Key:
Type in all cases: in vivo
[1] = test system: barnyard grass (Echinochloa crus-galli); experiment: Test Example 1: foliar application pot test, visual growth control rating; parameters: key: 1: the same as in an untreated plot; 10: perfect growth control; settings: wettable powder, observed 20 to 31 days after application
Description: (§1) 1/1,500 are [are (a) = 100 m²] pots were filled with upland farming soil, which in the pots was then sown with a variety of plants. The plants grown will be enumerated below.
(§2) When each plant reached a given growth stage (a 1.2- to 3.0-leaf stage for rice, primary leaf to a 0.7-leaf stage for soybean, 2.1- to 3.6-leaf stage for corn, cotyledon to 0.7-leaf stage for cotton, 2.0- to 3.0-leaf stage for wheat, 0.3- to 3.4-leaf stage for cocklebur, 0.3- to 1.6-leaf stage for morning glory, 0.1- to 1.3-leaf stage for prickly sida, 0.1- to 1.3-leaf stage for slender amaranth, 1.5- to 3.2-leaf stage for barnyard glass, and 1.2- to 3.0-leaf stage for large crabgrass), a predetermined amount of the herbicide of the present invention in the form of a wettable powder, weighed out, diluted with 5 ℓ/a of water and admixed with 0.2 or 0.1 vol%, based on the resulting composition, of an agricultural spreader, was foliarly applied to the plant with a small spray gun. The progress of growth of the plant was visually observed 20 to 31 days after the foliar application to evaluate the degree of growth control according to 10 ratings (1: the same as in an untreated plot - 10: perfect growth control).

corn (Zea mays) = experiment: as above; parameters: key: 1: the same as in an untreated plot; 10: perfect growth control; settings: wettable powder, observed 20 to 31 days after application
Description: as §1, §2

[2] = test system: large crabgrass (Digitaria adscendens); experiment: as above; parameters: key: 1: the same as in an untreated plot; 10: perfect growth control; settings: wettable powder, observed 20 to 31 days after application
Description: as §1, §2

[3] = test system: morning glory (Ipomoea purpurea); experiment: as above; parameters: key: 1: the same as in an untreated plot; 10: perfect growth control; settings: wettable powder, observed 20 to 31 days after application
Description: as §1, §2

rice (Oryza sativa) = experiment: as above; parameters: key: 1: the same as in an untreated plot; 10: perfect growth control; settings: wettable powder, observed 20 to 31 days after application
Description: as §1, §2

[4] = test system: slender amaranth (Amaranthus viridis); experiment: as above; parameters: key: 1: the same as in an untreated plot; 10: perfect growth control; settings: wettable powder, observed 20 to 31 days after application
Description: as §1, §2

[5] = test system: velvet leaf (Abutilon theophrasti); experiment: Test Example 2: foliar application pot test, visual herbicidal effect rating, single and combined herbicides; settings: velvet leaf 1.2-leaf stage, 25 days after foliar application; note: ranges in brackets are in %
Description: 1/10000-are pot was filled with upland farming soil and sown with velvet leaf (Abutilon theophrasti). When the plant reached the 1.2-leaf stage, a predetermined amount of the herbicide of the present invention diluted with 5 ℓ of water per are and admixed with 0.1 vol%, based on the aqueous solution, of an agricultural spreader ("Kusa Rino", produced by Nihon Nohyaku Co., Ltd.) was foliarly applied to the plant with a small spray gun. The herbicidal effect was visually observed 25 days after the foliar application and evaluated according to the rating system shown below.

velvet leaf [6] = experiment: Test Example 3: foliar application pot test, percent growth inhibition by fresh weight of aerial part and Colby's value; settings: Abutilon theophrasti, velvet leaf 1-leaf stage, 20th day from foliar application, fresh weight of aerial part, read-out: Percent Growth Inhibition (%) Found; for inhibition at 16 g/ha: 0.16 g/a; for inhibition at 63 g/ha: 0.63 g/a
Description: (§3) 1/10000-are pot was filled with upland farming soil and sown with velvet leaf. When the plant reached the 1-leaf stage, a predetermined amount of the herbicide of the present invention diluted with 5 ℓ of water per are and admixed with 0.1 vol%, based on the aqueous solution, of an agricultural spreader ("Kusa Rino") was foliarly applied to the plant with a small spray gun. On the 20th day from the application, the aerial part of the plant was weighed to obtain a percent growth inhibition according to Equation (1) (found value) and a Colby's value (calculated value) according to Equation (2) (see Weed, Vol. 15, pp. 20-22 (1967)). Percent Growth Inhibition (%) = (1 -(Fresh Weight of Aerial Part of Plant in Treated Plot)/(Fresh Weight of Aerial Part of Plant in Untreated Plot)) x 100 [formula] Colby's Value (E) = α + β -(α x β)/(100) [formula]
(§4) Wherein α represents a percent growth inhibition when treated with an amount a (g/a) of herbicide A; β represents a percent growth inhibition when treated with amount b (g/a) of herbicide B; and E represents an expected percent growth inhibition when treated with a of herbicide A and b of herbicide B.

velvet leaf [7] = experiment: Test Example 4: foliar application pot test, percent growth inhibition by fresh weight of aerial part and Colby's value; settings: Abutilon theophrasti, read-out: Percent Growth Inhibition (%) Found
Description: as §3, §4
(§5) 1/10000-are pot was filled with upland farming soil and sown with velvet leaf. When the plant reached the 1-leaf stage, a predetermined amount of the herbicide of the present invention diluted with 5 ℓ of water per are and admixed with 0.1 vol%, based on the aqueous solution, of an agricultural spreader ("Kusa Rino") was foliarly applied to the plant with a small spray gun. On the 20th day from the application, the aerial part of the plant was weighed to obtain a percent growth inhibition and a Colby's value in the same manner as in Test Example 3.

[8] = test system: large crabgrass (Digitaria adscendens); experiment: Test Example 5: foliar application pot test, percent growth inhibition by fresh weight of aerial part and Colby's value; settings: read-out: Percent Growth Inhibition (%) Found
Description: as §3, §4
as §5, with “large crabgrass (Digitaria adscendens).” for “velvet leaf.”, “2-leaf” for “1-leaf”

cotton (Gossypium) = experiment: Test Example 1: foliar application pot test, visual growth control rating; settings: wettable powder, observed 20 to 31 days after application
Description: as §1, §2

[9] = test system: cocklebur (Xanthium strumarium); experiment: as above; parameters: key: 1: the same as in an untreated plot; 10: perfect growth control; settings: wettable powder, observed 20 to 31 days after application
Description: as §1, §2

[10] = test system: prickly sida (Sida spinosa); experiment: as above; parameters: key: 1: the same as in an untreated plot; 10: perfect growth control; settings: 1.25 g/a active ingredient, wettable powder, observed 20 to 31 days after application
Description: as §1, §2

soybean (Glycine max) = experiment: as above; parameters: key: 1: the same as in an untreated plot; 10: perfect growth control; settings: 1.25 g/a active ingredient, wettable powder, observed 20 to 31 days after application
Description: as §1, §2

| Compound | degree of growth control, EC ([1]; 0.31 g/a active ingredient) | degree of growth control, EC ([1]; 1.25 g/a active ingredient) | degree of growth control, ZE (corn (Zea mays); 0.31 g/a active ingredient) | degree of growth control, ZE (corn (Zea mays); 1.25 g/a active ingredient) | degree of growth control, DI ([2]; 1.25 g/a active ingredient) | degree of growth control, IP ([3]; 0.31 g/a active ingredient) | degree of growth control, IP ([3]; 1.25 g/a active ingredient) | degree of growth control, OR (rice (Oryza sativa); 1.25 g/a active ingredient) | degree of growth control, AM ([4]; 1.25 g/a active ingredient) | inhibition at 16 g/ha (velvet leaf [6]) [%] | inhibition at 63 g/ha (velvet leaf [6]) [%] | degree of growth control, GO (cotton (Gossypium); 1.25 g/a active ingredient) | degree of growth control, XA ([9]; 1.25 g/a active ingredient) | further results |
| --- | --- | --- | --- | --- | --- | --- | --- | --- | --- | --- | --- | --- | --- | --- |
| CCN(c1cccc(S(=O)(=O)NC(=O)Nc2nc(C)nc(OC)n2)n1)S(=O)(=O)C(C)Cl (racemic) [Compound No. 54, 6-[[N-(1-chloroethylsulfonyl)-N-ethyl]amino]-N-[[(4-methoxy-6-methyltriazin-2-yl)amino]carbonyl]-2-pyridinesulfonamide] | 10 | 10 | 10 | 10 | 3 | 9 | 9 | 9 | 9 | 19 | 86 |  |  | degree of growth control, DI ([2]; 0.31 g/a active ingredient): 3; degree of growth control, OR (rice (Oryza sativa); 0.31 g/a active ingredient): 9; degree of growth control, AM ([4]; 0.31 g/a active ingredient): 9; Rating ([5]; 0.16 g/a): 3 (30-39); Rating ([5]; 0.31 g/a): 5 (50-59); Rating ([5]; 0.63 g/a): 6 (60-69); Rating ([5]; 1.25 g/a): 8 (80-89); inhibition at 31 g/ha (velvet leaf [6]; 0.31 g/a): 52%; inhibition at 16 g/ha (velvet leaf [7]; 0.16 g/a, velvet leaf 1-leaf stage, 20th day from foliar application, fresh weight of aerial part): 12%; inhibition at 31 g/ha (velvet leaf [7]; 0.31 g/a, velvet leaf 1-leaf stage, 20th day from foliar application, fresh weight of aerial part): 32%; inhibition at 63 g/ha (velvet leaf [7]; 0.63 g/a, velvet leaf 1-leaf stage, 20th day from foliar application, fresh weight of aerial part): 66%; inhibition at 16 g/ha ([8]; 0.16 g/a, foliar application, 20th day, large crabgrass): 19%; inhibition at 31 g/ha ([8]; 0.31 g/a, foliar application, 20th day, large crabgrass): 24%; inhibition at 63 g/ha ([8]; 0.63 g/a, foliar application, 20th day, large crabgrass): 77% |
| CCC(Cl)S(=O)(=O)N(CC)c1cccc(S(=O)(=O)NC(=O)Nc2nc(C)nc(OC)n2)n1 (racemic) [compound 88] | 10 | 10 | 10 | 10 |  | 10 | 10 |  |  |  |  | 6 | 10 | degree of growth control, GO (cotton (Gossypium); 0.31 g/a active ingredient): 6; degree of growth control, XA ([9]; 0.31 g/a active ingredient): 10 |
| CC(C)N1C(=O)c2ccccc2NS1(=O)=O [Bentazon, 3-(1-methylethyl)-(1H)-2,1,3-benzothiadiazin-4(3H)-one-2,2-dioxide, reference compound] |  |  |  |  |  |  |  |  |  |  | 17 |  |  | inhibition at 125 g/ha (velvet leaf [6]; 1.25 g/a): 69% |
| CON(C)C(=O)Nc1ccc(Cl)c(Cl)c1 [Linuron, 3-(3,4-dichlorophenyl)-1-methoxy-1-methylurea, reference compound] |  |  |  |  |  |  |  |  |  |  |  |  |  | inhibition at 12.5 g/ha (velvet leaf [7]; foliar): 35%; inhibition at 25 g/ha (velvet leaf [7]; foliar): 61%; inhibition at 12.5 g/ha ([8]; foliar): 23%; inhibition at 25 g/ha ([8]; foliar): 68%; inhibition at 50 g/ha ([8]; foliar): 79% |
| CSc1nnc(C(C)(C)C)c(=O)n1N [Metribuzin, 4-amino-6-(1,1-dimethylethyl)-3-(methylthio)-1,2,4-triazin-5(4H)-one, reference compound] |  |  |  |  |  |  |  |  |  | 89 |  |  |  |  |
| CCN(c1cccc(S(=O)(=O)NC(=O)Nc2nc(C)nc(OC)n2)n1)S(=O)(=O)CC(F)(F)F [compound 79] |  | 1 |  | 1 | 3 |  | 7 | 1 | 6 |  |  | 6 | 6 | degree of growth control, SI [10]: 3; degree of growth control, GL (soybean (Glycine max)): 6 |
